These compounds were tested on HCT116 colorectal cancer cells (assay: Cisplatin sensitization assay (96 h cell viability MTS)). Settings: compound and Cisplatin added simultaneously, Cisplatin sensitization value.
Format: cell-based
In short: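 Compound and cisplatin added together as a full matrix of 2-fold serial dilutions from a top final concentration of 10 μM; cells incubated 96 h at 37° C, 5% CO2. Viability then read by MTS after 1 h further incubation; sensitization value reported in μM bins.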
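Note: Test-compound concentration that lowers the Cisplatin IC50 by a set fold.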

Compound	Cisplatin Sensitization Assay
Nc1nn2cc(F)cnc2c1C(=O)Nc1cncc(F)c1N1CCC(CN2CCOCC2)CC1 [I-N-149, 2-amino-6-fluoro-N-(5-fluoro-4-(4-(morpholinomethyl)piperidin-1-yl)pyridin-3-yl)pyrazolo[1,5-a]pyrimidine-3-carboxamide]	+++ (Cisplatin sensitization value of <0.02 μM)
CN1CCN(CC2CCN(c3c(F)cncc3NC(=O)c3c(N)nn4cc(F)cnc34)CC2)CC1 [I-N-150, 2-amino-6-fluoro-N-(5-fluoro-4-(4-((4-methylpiperazin-1-yl)methyl)piperidin-1-yl)pyridin-3-yl)pyrazolo[1,5-a]pyrimidine-3-carboxamide]	+++ (Cisplatin sensitization value of <0.02 μM)
CN1CCN(C2CCN(c3c(F)cncc3NC(=O)c3c(N)nn4cc(F)cnc34)CC2)C(=O)C1 [I-N-151, 2-amino-6-fluoro-N-(5-fluoro-4-(4-(4-methyl-2-oxopiperazin-1-yl)piperidin-1-yl)pyridin-3-yl)pyrazolo[1,5-a]pyrimidine-3-carboxamide]	+ (Cisplatin sensitization value>0.2 μM but <5 μM)
Nc1nn2cc(F)cnc2c1C(=O)Nc1cnccc1N1CCCCC1 [I-N-152, 2-amino-6-fluoro-N-(4-(piperidin-1-yl)pyridin-3-yl)pyrazolo[1,5-a]pyrimidine-3-carboxamide]	+++ (Cisplatin sensitization value of <0.02 μM)
CN(C)CC(=O)N1CCN(c2c(F)cncc2NC(=O)c2c(N)nn3cc(F)cnc23)CC1 [I-N-153, 2-amino-N-(4-(4-(2-(dimethylamino)acetyl)piperazin-1-yl)-5-fluoropyridin-3-yl)-6-fluoropyrazolo[1,5-a]pyrimidine-3-carboxamide]	++ (Cisplatin sensitization value>0.02 μM but <0.2 μM)
CN1CCC(OC2CCN(c3ccncc3NC(=O)c3c(N)nn4cc(F)cnc34)CC2)CC1 [I-N-154, 2-amino-6-fluoro-N-(4-(4-((1-methylpiperidin-4-yl)oxy)piperidin-1-yl)pyridin-3-yl)pyrazolo[1,5-a]pyrimidine-3-carboxamide]	+++ (Cisplatin sensitization value of <0.02 μM)
Nc1nn2cc(F)cnc2c1C(=O)Nc1cncc(F)c1N1CCC(S(=O)(=O)N2CCOCC2)CC1 [I-N-155, 2-amino-6-fluoro-N-(5-fluoro-4-(4-(morpholinosulfonyl)piperidin-1-yl)pyridin-3-yl)pyrazolo[1,5-a]pyrimidine-3-carboxamide]	+++ (Cisplatin sensitization value of <0.02 μM)
CN1CCC(C(=O)N2CCN(c3c(F)cncc3NC(=O)c3c(N)nn4cc(F)cnc34)CC2)C1 (centres unmarked) [I-N-156, 2-amino-6-fluoro-N-(5-fluoro-4-(4-(1-methylpyrrolidine-3-carbonyl)piperazin-1-yl)pyridin-3-yl)pyrazolo[1,5-a]pyrimidine-3-carboxamide]	+++ (Cisplatin sensitization value of <0.02 μM)
CN1CCC[C@H]1C(=O)N1CCN(c2c(F)cncc2NC(=O)c2c(N)nn3cc(F)cnc23)CC1 [I-N-157, (S)-2-amino-6-fluoro-N-(5-fluoro-4-(4-(1-methylpyrrolidine-2-carbonyl)piperazin-1-yl)pyridin-3-yl)pyrazolo[1,5-a]pyrimidine-3-carboxamide]	++ (Cisplatin sensitization value>0.02 μM but <0.2 μM)
Nc1nn2cc(F)cnc2c1C(=O)Nc1cncc(F)c1N1CCN(S(=O)(=O)C2CCOCC2)CC1 [I-N-158, 2-amino-6-fluoro-N-(5-fluoro-4-(4-((tetrahydro-2H-pyran-4-yl)sulfonyl)piperazin-1-yl)pyridin-3-yl)pyrazolo[1,5-a]pyrimidine-3-carboxamide]	+++ (Cisplatin sensitization value of <0.02 μM)
Nc1nn2cc(F)cnc2c1C(=O)Nc1cncc(F)c1N1CCN(S(=O)(=O)C2CC2)CC1 [I-N-159, 2-amino-N-(4-(4-(cyclopropylsulfonyl)piperazin-1-yl)-5-fluoropyridin-3-yl)-6-fluoropyrazolo[1,5-a]pyrimidine-3-carboxamide]	+++ (Cisplatin sensitization value of <0.02 μM)
Nc1nn2cc(F)cnc2c1C(=O)Nc1cncc(F)c1N1CCN(C(=O)CN2CCC2)CC1 [I-N-160, 2-amino-N-(4-(4-(2-(azetidin-1-yl)acetyl)piperazin-1-yl)-5-fluoropyridin-3-yl)-6-fluoropyrazolo[1,5-a]pyrimidine-3-carboxamide]	+++ (Cisplatin sensitization value of <0.02 μM)
Cc1ncn(-c2ccncc2NC(=O)c2c(N)nn3cc(F)cnc23)n1 [I-N-161, 2-amino-6-fluoro-N-(4-(3-methyl-1H-1,2,4-triazol-1-yl)pyridin-3-yl)pyrazolo[1,5-a]pyrimidine-3-carboxamide]	+ (Cisplatin sensitization value>0.2 μM but <5 μM)
Cc1ncnn1-c1ccncc1NC(=O)c1c(N)nn2cc(F)cnc12 [I-N-162, 2-amino-6-fluoro-N-(4-(5-methyl-1H-1,2,4-triazol-1-yl)pyridin-3-yl)pyrazolo[1,5-a]pyrimidine-3-carboxamide]	++ (Cisplatin sensitization value>0.02 μM but <0.2 μM)
Nc1nn2cc(F)cnc2c1C(=O)Nc1cncc(F)c1N1CCN2C(=O)CCC2C1 (centres unmarked) [I-N-163, 2-amino-6-fluoro-N-(5-fluoro-4-(6-oxohexahydropyrrolo[1,2-a]pyrazin-2(1H)-yl)pyridin-3-yl)pyrazolo[1,5-a]pyrimidine-3-carboxamide]	+++ (Cisplatin sensitization value of <0.02 μM)
CN1CC(OC2CCN(c3ccncc3NC(=O)c3c(N)nn4cc(F)cnc34)CC2)C1 [I-N-164, 2-amino-6-fluoro-N-(4-(4-((1-methylazetidin-3-yl)oxy)piperidin-1-yl)pyridin-3-yl)pyrazolo[1,5-a]pyrimidine-3-carboxamide]	+++ (Cisplatin sensitization value of <0.02 μM)
CS(=O)(=O)C1CCN(c2c(F)cncc2NC(=O)c2c(N)nn3cc(F)cnc23)CC1 [I-N-165, 2-amino-6-fluoro-N-(5-fluoro-4-(4-(methylsulfonyl)piperidin-1-yl)pyridin-3-yl)pyrazolo[1,5-a]pyrimidine-3-carboxamide]	+++ (Cisplatin sensitization value of <0.02 μM)
CN1CCN(S(=O)(=O)C2CCN(c3c(F)cncc3NC(=O)c3c(N)nn4cc(F)cnc34)CC2)CC1 [I-N-166, 2-amino-6-fluoro-N-(5-fluoro-4-(4-((4-methylpiperazin-1-yl)sulfonyl)piperidin-1-yl)pyridin-3-yl)pyrazolo[1,5-a]pyrimidine-3-carboxamide]	+++ (Cisplatin sensitization value of <0.02 μM)
Nc1nn2cc(F)cnc2c1C(=O)Nc1cncc(F)c1N1CCC(OCCN2CCCC2)CC1 [I-N-167, 2-amino-6-fluoro-N-(5-fluoro-4-(4-(2-(pyrrolidin-1-yl)ethoxy)piperidin-1-yl)pyridin-3-yl)pyrazolo[1,5-a]pyrimidine-3-carboxamide]	+++ (Cisplatin sensitization value of <0.02 μM)
Nc1nn2cc(F)cnc2c1C(=O)Nc1cncc(F)c1N1CCN(C(=O)C2CNC2)CC1 [I-N-168, 2-amino-N-(4-(4-(azetidine-3-carbonyl)piperazin-1-yl)-5-fluoropyridin-3-yl)-6-fluoropyrazolo[1,5-a]pyrimidine-3-carboxamide]	+ (Cisplatin sensitization value>0.2 μM but <5 μM)
